From patent publication US7504537B2, “Hydroxamic acid derivative and MMP inhibitor containing the same as active ingredient” (Dainippon Sumitomo Pharma Co., Ltd., priority 2001, dated 2009) come the findings set out here.

Where only a bound is given, the exact number is not on record here.

Type in all cases: biochemical
For one assay, the target named is T1, MMP-3 (Homo sapiens, UniProt P08254).
T1 construct: C-terminal truncated cDNA in which the cDNA encodes human prostromelysin; made in house; host or cells: E. coli
The experiment in a line: Test 1 Test on MMP-3 inhibiting activity (fluorogenic peptide substrate). Conditions: activated MMP-3, 37° C.; read-out: MMP-3 inhibition activity value. The method, then:
Test 1 Test on MMP-3 Inhibiting Activity
C-terminal truncated cDNA in which the cDNA encodes human prostromelysin, was subcloned (proMMP-3, cDNA sequence in Nature, 348, 699-704 (1990)), was expressed in E. coli and then, the expressed protein was purified in accordance with the method described in Biochemistry 30, 6476-6483 (1991). proMMP-3 activation was carried out by treating with 1 mM 4-aminophenyl mercuric acetate for 60 minutes at 37° C.
Enzyme activity test was conducted by the method of C. G. Knight (FEBS Lett., 296(3), 263-266 (1992)).
A mixture of activated MMP-3 (20 nM, 10 μl), buffer solution (70 μl, pH 7.5 solution containing 100 mM Tris-HCl solution, 10 mM calcium chloride solution, 100 mM sodium chloride solution and 0.05% Brij-35 solution), MOCAc-Pro-Leu-Gly-Leu-A2pr(DNP)-Ala-Arg-NH2 in 0.1% DMSO solution (100 μM, 10 μl) and a test compound in DMSO solution was incubated for 1.5 hours at 37° C. The mixture was put on a 96 well-plate (100 μl/well) and the plate was cultured at 37° C. The enzyme activity in the presence of the compound was measured based on fluorescence intensity (λex 320 nm, λem 405 nm), and IC50 was calculated.

The target of the next assay is T2, MMP-2 (Homo sapiens, UniProt P08253).
T2 construct: purchased Boeringer Manheim (Roche Diagnostics)
T2 sequence (P08253 110-660): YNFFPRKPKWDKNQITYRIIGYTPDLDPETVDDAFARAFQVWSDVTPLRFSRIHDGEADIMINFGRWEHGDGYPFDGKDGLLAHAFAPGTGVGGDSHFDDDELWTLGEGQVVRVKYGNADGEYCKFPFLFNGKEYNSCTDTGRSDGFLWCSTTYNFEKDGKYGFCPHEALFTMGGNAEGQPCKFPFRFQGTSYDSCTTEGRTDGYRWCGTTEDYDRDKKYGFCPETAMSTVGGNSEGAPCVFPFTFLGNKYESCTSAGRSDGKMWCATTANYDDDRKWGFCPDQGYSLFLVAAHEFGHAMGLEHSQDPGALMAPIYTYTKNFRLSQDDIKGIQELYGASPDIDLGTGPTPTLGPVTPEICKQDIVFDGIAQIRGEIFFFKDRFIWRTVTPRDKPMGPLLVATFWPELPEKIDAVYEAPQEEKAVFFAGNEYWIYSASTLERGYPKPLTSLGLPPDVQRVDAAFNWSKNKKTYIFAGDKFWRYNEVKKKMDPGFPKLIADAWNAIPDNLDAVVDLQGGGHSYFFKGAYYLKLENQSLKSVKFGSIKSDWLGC
As to the kind of experiment: Test 3 MMP-2 inhibition activity test (gelatinase activity assay kit). The settings on record: activated human MMP-2, biotin labeled gelatin. The method, then: TTC buffer solution was attached to a MMP-2 enzyme assay kit, and the solution was made of 50 mM tris, 1 mM calcium chloride solution and 0.05% Triton X-100 solution, and was adjusted to pH 7.5.
Test 3 MMP-2 Inhibition Activity Test
MMP-2 enzyme assay kit (Gelatinase Activity Assay, Roche.Diagonistics) was used.
A mixture of 1.2U human MMP-2 (20 μl, Boeringer Manheim 30U freezed dry product), TTC buffer (980 μl) and 2.5 mM 4-aminophenyl mercuric acetate solution (144 μl) was incubated at 37° C. for 30 minutes and then it was preserved under ice cooling until use.
A mixture of DMSO solution (2 μl) containing a definite concentration of the compound, biotin labeled gelatin (188 μl) and activated MMP-2 solution (10 μl) was put on a 96 well-assay plate (protein nonabsorbance type), well agitated and incubated at 37° C. for 1 hour. This solution was transferred to a Streptavidin-coating plate and agitated at 15° C, to 30° C. for 30 minutes. And then the solution was washed with TTC buffer solution (200 μl) three times. Thereto was added Streptavidin-POD (200 μl) and the mixture was agitated at 15° C. to 25° C. for 60 minutes, followed by washing with TTC buffer (200 μl) three times. Then, ABTS solution (200 μl) was added thereto and after standing at room temperature for 40 minutes, furuorescence intensity was measure at 405 nm and IC50 was calculated.
In case of the above test, a control and a blank were prepared when the well was prepared as mentioned below. DMSO (2 μl) was used as a control instead of a sample solution. In the case of a blank, DMSO (2 μl) instead of the sample solution and the solution (10 μl) prepared in the same manner as preparation of activated MMP-2 solution but without adding 1.2U human MMP-2, instead of activated MMP-2 solution (10 μl), were used.

A further assay concerns the target T3, MMP-1 (Homo sapiens, UniProt P03956).
T3 construct: calbiochem cat; purchased calbiochem 444208; host or cells: human rheumatic synovium fibroblast
T3 sequence (P03956 100-469): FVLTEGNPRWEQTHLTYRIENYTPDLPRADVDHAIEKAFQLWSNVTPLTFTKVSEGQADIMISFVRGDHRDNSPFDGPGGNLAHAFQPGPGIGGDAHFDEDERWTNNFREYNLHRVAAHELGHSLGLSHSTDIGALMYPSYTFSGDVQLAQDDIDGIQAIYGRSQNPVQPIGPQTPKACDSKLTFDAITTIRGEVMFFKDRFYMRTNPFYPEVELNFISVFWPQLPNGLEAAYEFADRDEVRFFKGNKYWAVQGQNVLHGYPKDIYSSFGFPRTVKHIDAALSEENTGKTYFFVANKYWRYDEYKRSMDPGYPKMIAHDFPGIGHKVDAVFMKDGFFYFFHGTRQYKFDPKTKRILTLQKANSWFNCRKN
As to the kind of experiment: Test 6 MMP-1 inhibition activity test. The settings on record: MMP-1 from human rheumatic synovium fibroblast, activated with AMPA. As for the experimental part: Test 6 MMP-1 Inhibition Activity Test
MMP-1 (stroma collagenase: EC3.4.24.7, human rheumatic synovium fibroblast, calbiochem cat. 444208) was activated with AMPA at 37° C. for 60 minutes. A test compound was preincubated with activated MMP-1 at 37° C. for 60 minutes in the reaction mixture containing 50 mM MOPS (pH 7.2), 10 mM aqueous calcium chloride solution, and 10 μM zinc chloride. Thereto was added 25 μM Mca-Pro-Leu-Dpa-Ala-Arg-NH2, and the mixture was incubated at 37° C. for 120 minutes. The enzyme activity was measured by fluorescence intensity of Mca-Pro-Leu-Gly, and IC50 was calculated.

T1 sequence (P08254 100-272 limits assumed): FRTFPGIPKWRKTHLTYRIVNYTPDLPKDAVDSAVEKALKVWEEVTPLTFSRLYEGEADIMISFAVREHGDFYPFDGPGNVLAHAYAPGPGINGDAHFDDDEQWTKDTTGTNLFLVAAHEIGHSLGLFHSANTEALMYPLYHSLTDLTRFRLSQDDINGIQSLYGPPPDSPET

On to `CS(=O)(=O)c1ccc(Oc2ccc(S(=O)(=O)N(CC(=O)NO)Cc3ccncc3)cc2)cc1` [Example 42, N′^1′-Hydroxy-N′^2′-({4-[4-(methylsulfonyl)phenoxy]phenyl}sulfonyl)-N′^2′-(4-pyridinylmethyl)glycinamide], for which the IC50 on MMP-3 is 67.5 nM; at MMP-2, less than 100 nM; against MMP-1, more than 10000 nM.
Take `CS(=O)(=O)c1ccc(Oc2ccc(S(=O)(=O)N(Cc3ccccc3)C3(C(=O)NO)CCOCC3)cc2)cc1` [Example 12, 4-[Benzyl({4-[4-(methylsulfonyl)phenoxy]phenyl}sulfonyl)amino]-N-hydroxytetrahydoro-2H-pyrane-4-carboxamide]: the values for the IC50 at MMP-3, on MMP-2 and against MMP-1 were 16 nM, less than 100 nM and more than 10000 nM, respectively.
In the case of `CCOCCN(C1(C(=O)NO)CCCC1)S(=O)(=O)c1ccc(Oc2ccc(S(C)(=O)=O)cc2)cc1` [Example 45, 1-[(2-Ethoxyethyl)({4-[4-(methylsulfonyl)phenoxy]phenyl}sulfonyl)amino]-N-hydroxycyclopentanecarboxamide], the IC50 at MMP-3 is 1.5 nM; at MMP-2, more than 100 nM; at MMP-1, 4960 nM.
Consider `CCOC(=O)CCN(C1(C(=O)NO)CCCC1)S(=O)(=O)c1ccc(Oc2ccc(S(C)(=O)=O)cc2)cc1` [Example 26, Ethyl N-{1-[(hydroxyamino)carbonyl]cyclopentyl}-N-({4-[4-(methylsulfonyl)phenoxy]phenyl}sulfonyl)-β-alaninate], for which the values for the IC50 at MMP-3, on MMP-2 and against MMP-1 were 14.3 nM, 300 nM and 3900 nM, respectively.
Taken in the same sequence, the figures for `CS(=O)(=O)c1ccc(Oc2ccc(S(=O)(=O)NCC(=O)NO)cc2)cc1` [Example 13, N′^1′-Hydroxy-N′^2′-({4-[4-(methylsulfonyl)phenoxy]phenyl}sulfonyl)glycinamide] were 13.5 nM, 900 nM and more than 10000 nM.
Taken in the same sequence, the figures for `CCOC(=O)CN(C1(C(=O)NO)CCCC1)S(=O)(=O)c1ccc(Oc2ccc(S(C)(=O)=O)cc2)cc1` [Example 23, Ethyl N-{1-[(hydroxyamino)carbonyl]cyclopentyl}-N-({4-[4-(methylsulfonyl)phenoxy]phenyl}sulfonyl)glycinate] were 21.6 nM, 2100 nM and more than 10000 nM.
`CC(C)CN(C1(C(=O)NO)CCC1)S(=O)(=O)c1ccc(Oc2ccc(S(C)(=O)=O)cc2)cc1` [Example 18, N-Hydroxy-1-[isobutyl({4-[4-(methylsulfonyl)phenoxy]phenyl}sulfonyl)amino]cyclobutanecarboxamide]: the IC50 turned out to be 29.9 nM on MMP-3 and 3300 nM against MMP-1.
Consider `CCOC(=O)CN(CC(=O)NO)S(=O)(=O)c1ccc(Oc2ccc(S(C)(=O)=O)cc2)cc1` [Example 22, Ethyl N-{[(hydroxyamino)carbonyl]methyl}-N-({4-[4-(methylsulfonyl)phenoxy]phenyl}sulfonyl)-glycinate], for which the IC50 is 26.6 nM at MMP-3, 1200 nM on MMP-2 and more than 10000 nM against MMP-1.
On to `CC(C)CN(C1(C(=O)NO)CCCC1)S(=O)(=O)c1ccc(Oc2ccc(S(C)(=O)=O)cc2)cc1` [Example 2, N-hydroxy 1-[isobutyl({4-[4-(methylsulfonyl)phenoxy]phenyl}sulfonyl)amino]cyclopentanecarboxamide], for which the IC50 at MMP-3 is 21.2 nM; at MMP-2 it was less than 100 nM; against MMP-1, 7210 nM.
Take `CS(=O)(=O)c1ccc(Oc2ccc(CC3Sc4ccc(C(=O)O)cc4N(CC(=O)NO)C3=O)cc2)cc1` (stereo not shown) [Example 50]: the IC50 on MMP-3 was 38 nM; against MMP-2, more than 100 nM.
